Source: ChEMBL document CHEMBL4392854, “Discovery, synthesis, biological evaluation and molecular docking study of (R)-5-methylmellein and its analogs as selective monoamine oxidase A inhibitors” (Bioorg Med Chem, 2019)

Tests used:
Homo sapiens = species on record: Homo sapiens; test: Selectivity index, ratio of IC50 for human recombinant MAOB to IC50 for human recombinant MAOA
[1] = target: T1, Amine oxidase [flavin-containing] B (Homo sapiens, UniProt P27338); test: Inhibition of human recombinant MAOB using kynuramine as substrate incubated for 10 mins by UPLC-ESI-MS/MS analysis
T1 sequence (P27338 whole entry): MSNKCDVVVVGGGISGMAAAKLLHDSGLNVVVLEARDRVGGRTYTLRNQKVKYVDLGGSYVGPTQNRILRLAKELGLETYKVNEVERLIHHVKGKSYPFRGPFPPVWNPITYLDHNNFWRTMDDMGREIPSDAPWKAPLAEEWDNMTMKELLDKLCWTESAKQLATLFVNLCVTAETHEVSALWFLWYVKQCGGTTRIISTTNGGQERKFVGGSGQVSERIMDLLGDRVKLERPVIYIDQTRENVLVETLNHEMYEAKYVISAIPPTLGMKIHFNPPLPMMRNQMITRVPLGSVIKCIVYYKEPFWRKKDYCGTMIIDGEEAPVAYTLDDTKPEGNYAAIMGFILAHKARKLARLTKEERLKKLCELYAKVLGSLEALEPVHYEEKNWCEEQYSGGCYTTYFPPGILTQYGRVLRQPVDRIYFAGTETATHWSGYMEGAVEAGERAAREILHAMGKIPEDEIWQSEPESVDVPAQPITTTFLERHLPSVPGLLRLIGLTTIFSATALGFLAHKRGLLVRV

[2] = target: T2, Amine oxidase [flavin-containing] A (Homo sapiens, UniProt P21397); test: Inhibition of human recombinant MAOA using kynuramine as substrate incubated for 10 mins by UPLC-ESI-MS/MS analysis
T2 sequence (P21397 whole entry): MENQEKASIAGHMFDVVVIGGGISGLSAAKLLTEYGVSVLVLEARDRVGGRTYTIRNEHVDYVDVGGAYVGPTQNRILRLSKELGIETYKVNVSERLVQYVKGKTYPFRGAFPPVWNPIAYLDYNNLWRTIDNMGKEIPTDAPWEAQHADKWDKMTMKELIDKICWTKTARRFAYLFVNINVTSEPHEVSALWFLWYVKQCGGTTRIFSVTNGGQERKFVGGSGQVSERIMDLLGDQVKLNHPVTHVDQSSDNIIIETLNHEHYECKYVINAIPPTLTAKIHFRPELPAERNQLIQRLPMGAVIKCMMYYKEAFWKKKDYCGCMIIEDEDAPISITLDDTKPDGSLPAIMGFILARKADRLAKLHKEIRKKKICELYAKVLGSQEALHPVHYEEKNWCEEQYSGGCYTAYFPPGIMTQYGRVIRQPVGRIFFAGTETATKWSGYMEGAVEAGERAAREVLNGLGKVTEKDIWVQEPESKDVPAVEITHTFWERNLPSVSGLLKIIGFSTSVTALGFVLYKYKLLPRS

Monoamine oxidase = target: T3, Monoamine oxidase (Mus musculus, UniProt Q8BW75+Q64133); test: Inhibition of mouse brain monoamine oxidase
T3 sequence (Q8BW75 whole entry): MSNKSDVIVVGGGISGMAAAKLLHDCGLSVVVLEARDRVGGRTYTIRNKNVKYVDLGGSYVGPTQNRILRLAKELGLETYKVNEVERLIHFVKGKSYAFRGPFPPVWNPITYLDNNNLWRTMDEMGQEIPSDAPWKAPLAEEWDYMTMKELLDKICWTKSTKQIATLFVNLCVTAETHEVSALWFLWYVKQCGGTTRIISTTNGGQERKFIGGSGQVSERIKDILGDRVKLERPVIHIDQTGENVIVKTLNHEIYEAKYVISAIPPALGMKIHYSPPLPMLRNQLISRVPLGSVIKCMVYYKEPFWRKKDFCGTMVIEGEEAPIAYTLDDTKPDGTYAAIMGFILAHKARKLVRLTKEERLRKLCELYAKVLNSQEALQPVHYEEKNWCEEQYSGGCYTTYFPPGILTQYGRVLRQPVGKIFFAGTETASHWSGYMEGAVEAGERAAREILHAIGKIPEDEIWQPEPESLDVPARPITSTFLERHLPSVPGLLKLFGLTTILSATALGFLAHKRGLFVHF
T3 sequence (Q64133 whole entry): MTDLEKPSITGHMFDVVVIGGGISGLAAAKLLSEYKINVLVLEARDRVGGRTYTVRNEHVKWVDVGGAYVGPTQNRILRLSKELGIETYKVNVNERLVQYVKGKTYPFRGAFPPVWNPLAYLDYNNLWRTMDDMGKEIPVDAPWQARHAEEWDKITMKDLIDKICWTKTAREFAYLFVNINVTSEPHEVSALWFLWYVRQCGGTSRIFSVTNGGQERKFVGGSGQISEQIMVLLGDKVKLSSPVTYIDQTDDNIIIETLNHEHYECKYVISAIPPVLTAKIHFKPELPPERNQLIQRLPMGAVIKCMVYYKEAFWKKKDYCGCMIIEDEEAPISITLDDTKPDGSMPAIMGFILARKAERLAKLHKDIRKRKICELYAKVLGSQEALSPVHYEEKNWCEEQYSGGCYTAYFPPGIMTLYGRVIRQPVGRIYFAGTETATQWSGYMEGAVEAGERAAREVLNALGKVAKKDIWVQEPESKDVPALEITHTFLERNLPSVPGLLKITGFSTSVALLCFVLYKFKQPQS

[3] = target: T2, Amine oxidase [flavin-containing] A; test: Tight-binding competitive inhibition of human recombinant MAOA using kynuramine as substrate incubated for 10 mins by UPLC-ESI-MS/MS analysis based Lineweaver-Burk plot kinetic analysis
[4] = target: T2, Amine oxidase [flavin-containing] A; test: Inhibition of human recombinant MAOA using kynuramine as substrate incubated for 10 mins by UPLC-ESI-MS/MS analysis based Michaelis-Menten plot kinetic analysis
[5] = target: T2, Amine oxidase [flavin-containing] A; test: Inhibition of human recombinant MAOA using kynuramine as substrate incubated for 10 mins by UPLC-ESI-MS/MS analysis based Eadie-Hofstee plot analysis

Ratio IC50 (Homo sapiens)	IC50 [1] [µM]	IC50 [2] [µM]	IC50 (Monoamine oxidase) [µM]	inhibition (INH) [3]	inhibition (INH) [4]	inhibition (INH) [5]	Compound
> 1.7	> 50	28.6	–	–	–	–	Cc1cc(Br)c(O)c2c1C[C@@H](C)OC2=O
> 17	> 50	2.9	–	–	–	–	CCc1cc(C)c2c(c1O)C(=O)O[C@H](C)C2
> 22	> 50	2.2	–	–	–	–	Cc1cc(Cl)c(O)c2c1C[C@@H](C)OC2=O
> 3.1	> 50	15.8	–	–	–	–	Cc1cc([N+](=O)[O-])c(O)c2c1C[C@@H](C)OC2=O
> 11	> 50	4.5	–	–	–	–	CCCc1cc(C)c2c(c1O)C(=O)O[C@H](C)C2
–	> 50	> 50	–	–	–	–	Cc1cc(C(=O)N(C)C)c(O)c2c1C[C@@H](C)OC2=O
8.3	38.5	4.6	1.06	–	–	–	Cc1ccc(O)c2c1C[C@@H](C)OC2=O
> 2.6	> 50	19.2	–	–	–	–	Cc1cc(CO)c(O)c2c1C[C@@H](C)OC2=O
> 18	> 50	2.7	–	–	–	–	Cc1cc(-c2ccncc2)c(O)c2c1C[C@@H](C)OC2=O
> 3.1	> 50	15.9	–	–	–	–	Cc1cc(I)c(O)c2c1C[C@@H](C)OC2=O
> 250	> 50	0.2	–	Active	Active	Active	Cc1cc(-c2cccnc2)c(O)c2c1C[C@@H](C)OC2=O
0.1	1	10.5	–	–	–	–	Cc1cc(-c2ccccc2)c(O)c2c1C[C@@H](C)OC2=O
> 350	> 50	0.14	–	Active	Active	Active	Cc1cc(-c2cncnc2)c(O)c2c1C[C@@H](C)OC2=O
0.3	4.1	12.4	–	–	–	–	Cc1ccc(-c2cc(C)c3c(c2O)C(=O)O[C@H](C)C3)cc1
10	40.9	4.1	–	–	–	–	Cc1ccc(O)c2c1C[C@H](C)OC2=O
> 2.7	> 50	18.3	–	–	–	–	CCCCc1cc(C)c2c(c1O)C(=O)O[C@H](C)C2
–	> 50	> 50	–	–	–	–	Cc1cc(C(=O)O)c(O)c2c1C[C@@H](C)OC2=O
> 250	> 50	0.2	–	Active	Active	Active	Cc1cc(-c2cccc(N)c2)c(O)c2c1C[C@@H](C)OC2=O
–	> 50	> 50	–	–	–	–	C=CC(=O)Nc1cc(C)c2c(c1O)C(=O)O[C@H](C)C2
> 3.6	> 50	13.6	–	–	–	–	Cc1cc(N(C)C)c(O)c2c1C[C@@H](C)OC2=O
> 13	> 50	3.8	–	–	–	–	Cc1cc(C)c2c(c1O)C(=O)O[C@H](C)C2
–	> 50	> 50	–	–	–	–	Cc1cc(C#N)c(O)c2c1C[C@@H](C)OC2=O
> 24	> 50	2.1	–	–	–	–	Cc1cc(-c2ccccn2)c(O)c2c1C[C@@H](C)OC2=O
–	> 50	> 50	–	–	–	–	CCN(CC)C(=O)c1cc(C)c2c(c1O)C(=O)O[C@H](C)C2
> 11	> 50	4.1	–	–	–	–	Cc1cc(N)c(O)c2c1C[C@@H](C)OC2=O

Second part, the compound before the results:

Compound	Ratio IC50 (Homo sapiens)	IC50 [1] [µM]	IC50 [2] [µM]	IC50 (Monoamine oxidase) [µM]	inhibition (INH) [3]	inhibition (INH) [4]	inhibition (INH) [5]
Cc1cc(-c2ccc(C(F)(F)F)cc2)c(O)c2c1C[C@@H](C)OC2=O	0.1	1	13.7	–	–	–	–
Cc1cc(-c2ccc(N)cc2)c(O)c2c1C[C@@H](C)OC2=O	26	21	0.8	–	–	–	–
Cc1cc2cccc(O)c2c(=O)o1	> 2	> 50	23.4	–	–	–	–
Cc1cc(-c2ccc(O)cc2)c(O)c2c1C[C@@H](C)OC2=O	38	38.9	1.1	–	–	–	–
CC[C@@H]1Cc2c(C)cc(-c3ccc(N)cc3)c(O)c2C(=O)O1	> 167	> 50	0.3	–	–	–	–
CCc1ccc(O)c2c1C[C@@H](C)OC2=O	< 0.3	16.1	> 50	–	–	–	–
Cc1cc(-c2cccc([N+](=O)[O-])c2)c(O)c2c1C[C@@H](C)OC2=O	> 17	> 50	3	–	–	–	–
COc1ccc(C)c2c1C(=O)O[C@@H](C)C2	–	> 50	> 50	–	–	–	–
C[C@@H]1Cc2c(CO)ccc(O)c2C(=O)O1	–	> 50	> 50	–	–	–	–
Cc1cc(C(=O)N2CCN(C)CC2)c(O)c2c1C[C@@H](C)OC2=O	–	> 50	> 50	–	–	–	–
Cc1cc(C(=O)NCCN2CCOCC2)c(O)c2c1C[C@@H](C)OC2=O	–	> 50	> 50	–	–	–	–
Cc1cc(C(=O)N2CCOCC2)c(O)c2c1C[C@@H](C)OC2=O	–	> 50	> 50	–	–	–	–
COc1cccc2c1C(=O)O[C@H](C)C2	–	> 50	> 50	–	–	–	–
C[C@@H]1Cc2cccc(O)c2C(=O)O1 [(-)-(R)-MELLEIN]	8.1	50	6.2	–	–	–	–
C[C@H]1Cc2cccc(O)c2C(=O)O1	3.2	24	7.5	–	–	–	–
Cc1ccc(O)c2c1CCOC2=O	1.7	5.5	3.2	–	–	–	–
CC[C@@H]1Cc2c(C)ccc(O)c2C(=O)O1	> 6.2	> 50	8	–	–	–	–
COc1ccc(C)c2c1C(=O)O[C@H](C)C2	–	> 50	> 50	–	–	–	–
C[C@@H]1Cc2c(O)ccc(O)c2C(=O)O1	> 2.9	> 50	17.1	–	–	–	–
Cc1ccc(O)c2c1CC(C)(C)OC2=O	–	> 50	> 50	–	–	–	–
COc1ccc(NCc2cc(C)c3c(c2O)C(=O)O[C@H](C)C3)cc1	> 11	> 50	4.4	–	–	–	–
C[C@@H]1Cc2c(C(=O)O)ccc(O)c2C(=O)O1	–	> 50	> 50	–	–	–	–
